Several values for one entry are separate records, joined by “and”; a condition that tells them apart may be missing. Identical values can stand only once.
System: 922993-354-T-J3-PDC complex spheroids, viability, % test/control
Assay: Anticancer human tumor 922993-354-T-J3-PDC patient-derived endometrial carcinoma cell line growth inhibition [CLK]
Conditions: for viability, T/C: stronger effect = lower value
Outline: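 Patient-derived tumor cells grown as complex spheroids with HUVEC endothelial cells and mesenchymal stem cells, treated with drug combinations. Concentrations descend in half-log steps from near clinical Cmax, or from 10 microM if Cmax unknown.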
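Also: spheroids exposed to the agents for 7 days before readout.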

CC1COCCN1c1cc(C2(S(C)(=N)=O)CC2)nc(-c2ccnc3[nH]ccc23)n1 (centres undefined) + CN1CCN(c2cc(C(=O)Nc3cc4cc(-c5cnn(C)c5)ccc4cn3)ccn2)CC1
IC50 (curve of first compound, second compound 0.0316 µM): > 10000 nM
IC50 (curve of first compound, second compound 0.1 µM): > 10000 nM
IC50 (curve of first compound, second compound 0.316 µM): < 31.6 nM
IC50 (curve of first compound, second compound 1 µM): < 31.6 nM
IC50 (curve of first compound, second compound 3.16 µM): < 31.6 nM
IC50 (curve of first compound, second compound 10 µM): < 31.6 nM
viability, T/C (second compound 0.0316 µM, first compound 0.0316 µM): 122%
viability, T/C (second compound 0.0316 µM, first compound 0.1 µM): 119%
viability, T/C (second compound 0.0316 µM, first compound 0.316 µM): 119%
viability, T/C (second compound 0.0316 µM, first compound 1 µM): 120%
viability, T/C (second compound 0.0316 µM, first compound 3.16 µM): 117%
viability, T/C (second compound 0.0316 µM, first compound 10 µM): 76.3%
viability, T/C (second compound 0.1 µM, first compound 0.0316 µM): 90.6%
viability, T/C (second compound 0.1 µM, first compound 0.1 µM): 111%
viability, T/C (second compound 0.1 µM, first compound 0.316 µM): 111%
viability, T/C (second compound 0.1 µM, first compound 1 µM): 94.6%
viability, T/C (second compound 0.1 µM, first compound 3.16 µM): 104%
viability, T/C (second compound 0.1 µM, first compound 10 µM): 60.7%
viability, T/C (second compound 0.316 µM, first compound 0.0316 µM): 38.1%
viability, T/C (second compound 0.316 µM, first compound 0.1 µM): 45.2%
viability, T/C (second compound 0.316 µM, first compound 0.316 µM): 35.9%
viability, T/C (second compound 0.316 µM, first compound 1 µM): 36.2%
viability, T/C (second compound 0.316 µM, first compound 3.16 µM): 27.9%
viability, T/C (second compound 0.316 µM, first compound 10 µM): 13.3%
viability, T/C (second compound 1 µM, first compound 0.0316 µM): 0.12%
viability, T/C (second compound 1 µM, first compound 0.1 µM): 0.14%
viability, T/C (second compound 1 µM, first compound 0.316 µM): 1.67%
viability, T/C (second compound 1 µM, first compound 1 µM): 0.14%
viability, T/C (second compound 1 µM, first compound 3.16 µM): 0.12%
viability, T/C (second compound 1 µM, first compound 10 µM): 0.08%
viability, T/C (second compound 3.16 µM, first compound 0.0316 µM): 0.13%
viability, T/C (second compound 3.16 µM, first compound 0.1 µM): 0.13%
viability, T/C (second compound 3.16 µM, first compound 0.316 µM): 0.16%
viability, T/C (second compound 3.16 µM, first compound 1 µM): 0.94%
viability, T/C (second compound 3.16 µM, first compound 3.16 µM): 1.11%
viability, T/C (second compound 3.16 µM, first compound 10 µM): 0.87%
viability, T/C (second compound 10 µM, first compound 0.0316 µM): 0.78%
viability, T/C (second compound 10 µM, first compound 0.1 µM): 0.17%
viability, T/C (second compound 10 µM, first compound 0.316 µM): 1.4%
viability, T/C (second compound 10 µM, first compound 1 µM): 0.2%
viability, T/C (second compound 10 µM, first compound 3.16 µM): 0.94%
viability, T/C (second compound 10 µM, first compound 10 µM): 1.78%

C=CC(=O)N1CCN(c2nc(=O)n(-c3c(C)ccnc3C(C)C)c3nc(-c4c(O)cccc4F)c(F)cc23)C(C)C1 (centres undefined)
viability, T/C (compound 0.0316 µM): 101% and 104%
viability, T/C (compound 0.1 µM): 94.5% and 105%
viability, T/C (compound 0.316 µM): 104% and 92%
viability, T/C (compound 1 µM): 105% and 99.2%
viability, T/C (compound 3.16 µM): 92.5% and 111%
viability, T/C (compound 10 µM): 93% and 93.6%
IC50 (curve of compound): > 10000 nM

— PubChem BioAssay AID2060606 (Molecular Pharmacology Branch, DTP, NCI, 2025)
